Experimental data published in US20250236627A1, “CERTAIN OCTAHYDROFURO[3,4- B]PYRAZINES AS GLP-1 RECEPTOR MODULATORS” (ASTRAZENECA AB, priority 2021, published 2025).

How the values were obtained:
[1] = biological target: T1, human phosphodiesterase-3A (Homo sapiens, UniProt Q14432); experiment: PDE3 Assay; type: biochemical; conditions: human recombinant enzyme expressed in Sf9 cells; formation of 5′AMP from cAMP
T1 construct: host or cells: Sf9 cells
Protocol: Evaluation of the effects of compounds on the activity of the human phosphodiesterase-3A is quantified by measuring the formation of 5′AMP from cAMP using a human recombinant enzyme expressed in Sf9 cells.
The test compound, reference compound or water (control) are added to a buffer containing 40 mM Tris/HCl (pH 7.4) and 8 mM MgCl2, 450 nM cAMP and 0.25 μCi [^3H]cAMP.
Thereafter, the reaction is initiated by addition of the enzyme (about 1 U) and the mixture is incubated for 20 min at 22° C.
For basal control measurements, the enzyme is omitted from the reaction mixture.
Following incubation SPA beads are added. After 30 min at 22° C. under shaking, the amount of [^3H]5′AMP is quantified with a scintillation counter (Topcount, Packard).
The results are expressed as a percent inhibition of the control enzyme activity. The standard inhibitory reference compound is milrinone (CAS number 78415-72-2), which is tested in each experiment at several concentrations to obtain an inhibition curve from which its IC50 value is calculated.

human GLP-1R receptor = biological target: T2, human GLP-1R receptor (Homo sapiens, UniProt P43220, L260F); experiment: CHOK1 GLP-1R cAMP Assay; type: cell-based; conditions: CHO-K1 cell line stably expressing human GLP-1R; HTRF cAMP detection
T2 construct: expressed in transfected cells; host or cells: CHO-K1 (ATCC CCL-61)
T2 sequence (P43220 24-463 L260F): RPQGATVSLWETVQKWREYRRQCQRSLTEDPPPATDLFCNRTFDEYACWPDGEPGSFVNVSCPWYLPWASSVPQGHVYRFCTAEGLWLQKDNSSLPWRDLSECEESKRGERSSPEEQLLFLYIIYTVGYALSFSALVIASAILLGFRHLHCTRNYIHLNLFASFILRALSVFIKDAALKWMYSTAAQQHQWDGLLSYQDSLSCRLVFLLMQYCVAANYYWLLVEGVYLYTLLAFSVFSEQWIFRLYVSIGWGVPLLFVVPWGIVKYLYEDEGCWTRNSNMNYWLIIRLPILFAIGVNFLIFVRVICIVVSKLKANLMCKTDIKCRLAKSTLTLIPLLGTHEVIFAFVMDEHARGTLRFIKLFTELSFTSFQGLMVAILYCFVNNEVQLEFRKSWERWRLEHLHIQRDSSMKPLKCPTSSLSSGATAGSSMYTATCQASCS
Summary of the method: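 CHO-K1 cells, 800/well, stimulated 20 min at room temperature with compound in HEPES pH 7.4/HBSS/0.1% BSA plus IBMX (1 mM in the added buffer). cAMP measured by HTRF competitive immunoassay after ≥1 h, converted to pM via standard curve. EC50 from 4-parameter logistic fit; % effect relative to saturating GLP1(7-36)NH2.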

[2] = biological target: T3, endogenous human glucagon-like peptide 1 receptor (GLP-1R) (Homo sapiens, UniProt P43220); experiment: EndoC cAMP Accumulation Assay; type: cell-based; conditions: EndoC-βH1 human pancreatic β cell line; HTRF cAMP assay
T3 construct: endogenous human glucagon-like peptide 1 receptor (GLP-1R) in a pancreatic insulinoma cell line; host or cells: EndoC-βH1 human pancreatic β cell line
T3 sequence (P43220 24-463): as the sequence (P43220 24-463 L260F) above, with F237L counted along it
Summary of the method: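 Thawed EndoC-βH1 cells (3000 per well) were stimulated for 30 min at room temperature in HBSS/25 mM HEPES pH 7.4, 0.1% BSA and 0.5 mM IBMX. cAMP was measured by HTRF competitive immunoassay after 1 h. Responses were fitted by 4-parameter logistic as % activation relative to maximal GIP (82.5 nM), with basal cAMP as zero.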

T1 sequence (Q14432 whole entry): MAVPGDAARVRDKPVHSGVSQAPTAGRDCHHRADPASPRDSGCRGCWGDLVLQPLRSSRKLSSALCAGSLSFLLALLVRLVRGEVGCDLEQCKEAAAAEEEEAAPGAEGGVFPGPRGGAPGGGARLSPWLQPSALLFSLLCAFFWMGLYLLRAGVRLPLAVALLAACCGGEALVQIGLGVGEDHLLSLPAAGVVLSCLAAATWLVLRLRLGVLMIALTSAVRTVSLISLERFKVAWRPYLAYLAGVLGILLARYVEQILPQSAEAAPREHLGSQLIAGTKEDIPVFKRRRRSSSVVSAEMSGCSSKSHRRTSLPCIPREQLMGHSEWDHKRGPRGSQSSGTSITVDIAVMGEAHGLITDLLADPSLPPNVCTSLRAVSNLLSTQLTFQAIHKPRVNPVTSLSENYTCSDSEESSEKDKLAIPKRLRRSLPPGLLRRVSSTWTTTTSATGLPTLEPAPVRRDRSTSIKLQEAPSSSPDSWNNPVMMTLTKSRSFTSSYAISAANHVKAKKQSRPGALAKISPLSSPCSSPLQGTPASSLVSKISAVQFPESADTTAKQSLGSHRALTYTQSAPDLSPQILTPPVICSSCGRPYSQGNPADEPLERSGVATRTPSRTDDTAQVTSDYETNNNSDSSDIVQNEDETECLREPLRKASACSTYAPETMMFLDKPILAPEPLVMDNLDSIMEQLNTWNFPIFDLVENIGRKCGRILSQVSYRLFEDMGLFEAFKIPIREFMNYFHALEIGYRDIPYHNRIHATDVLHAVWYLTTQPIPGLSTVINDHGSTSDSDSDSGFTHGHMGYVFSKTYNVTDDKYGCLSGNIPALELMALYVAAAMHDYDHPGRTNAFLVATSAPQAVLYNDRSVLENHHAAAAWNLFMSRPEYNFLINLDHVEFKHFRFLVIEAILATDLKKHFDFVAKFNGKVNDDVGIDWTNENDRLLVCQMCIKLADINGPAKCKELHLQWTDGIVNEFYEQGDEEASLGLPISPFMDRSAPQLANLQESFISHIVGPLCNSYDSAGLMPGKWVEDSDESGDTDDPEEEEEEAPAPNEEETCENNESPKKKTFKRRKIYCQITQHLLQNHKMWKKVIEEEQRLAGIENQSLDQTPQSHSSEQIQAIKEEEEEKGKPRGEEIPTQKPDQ

| Compound | IC50 [1] [µM] | EC50 (human GLP-1R receptor) [µM] | EC50 [2] [µM] |
| --- | --- | --- | --- |
| C[C@]1(c2ccc(Cl)cn2)Oc2cccc(N3CCN(Cc4nc5c(F)cc(C(=O)O)cc5n4CC4(C#N)CC4)[C@H]4COC[C@H]43)c2O1 (single isomer, unassigned) [Example 22a] | > 100 | 0.0027 | 0.0032 |
| COc1cc(C(=O)O)cc2c1nc(CN1CCN(c3cccc4c3O[C@@](C)(c3ccc(Cl)cn3)O4)[C@@H]3COC[C@@H]31)n2C[C@@H]1CCO1 (relative stereo) [Example 1b, 2-((4aR*,7aS*)-4-((R*)-2-(5-Chloropyridin-2-yl)-2-methylbenzo[d][1,3]dioxol-4-yl)hexahydrofuro[3,4-b]pyrazin-1(2H)-yl)methyl)-4-methoxy-1-(((S)-oxetan-2-yl)methyl)-1H-benzo[d]imidazole-6-carboxylic acid] | > 100 | 0.0018 | 0.0031 |
| COc1cc(C(=O)O)cc2c1nc(CN1CCN(c3cccc4c3O[C@@](C)(c3ccc(Cl)cn3)O4)[C@@H]3COC[C@@H]31)n2C[C@@H]1CCCO1 (relative stereo) [Example 2a, 2-((4aR*,7aS*)-4-((R*)-2-(5-Chloropyridin-2-yl)-2-methylbenzo[d][1,3]dioxol-4-yl)hexahydrofuro[3,4-b]pyrazin-1(2H)-yl)methyl)-4-methoxy-1-(((S)-tetrahydrofuran-2-yl)methyl)-1H-benzo[d]imidazole-6-carboxylic acid] | > 100 | 0.0038 | 0.0031 |
| C[C@]1(c2ccc(Cl)cn2)Oc2cccc(N3CCN(Cc4nc5c(F)cc(C(=O)O)cc5n4C[C@@H]4CCO4)[C@H]4COC[C@H]43)c2O1 (single isomer, unassigned) [Example 9a, 2-(((4aR*,7aS*)-4-((R*)-2-(5-Chloropyridin-2-yl)-2-methylbenzo[d][1,3]dioxol-4-yl)hexahydrofuro[3,4-b]pyrazin-1(2H)-yl)methyl)-4-fluoro-1-(((S)-oxetan-2-yl)methyl)-1H-benzo[d]imidazole-6-carboxylic acid] | > 100 | 0.0015 | 0.0039 |
| C[C@]1(c2ccc(Cl)cn2)Oc2cccc(N3CCN(Cc4nc5c(F)cc(C(=O)O)cc5n4CC4(CC#N)CC4)[C@H]4COC[C@H]43)c2O1 (single isomer, unassigned) [Example 21] | > 100 | 0.003 | 0.003 |
| C[C@]1(c2ccc(Cl)cn2)Oc2cccc(N3CCN(Cc4nc5ccc(C(=O)O)cc5n4C[C@@H]4CCCO4)[C@H]4COC[C@H]43)c2O1 (single isomer, unassigned) [Example 8a, 2-(((4aR*,7aS*)-4-((R*)-2-(5-Chloropyridin-2-yl)-2-methylbenzo[d][1,3]dioxol-4-yl)hexahydrofuro[3,4-b]pyrazin-1(2H)-yl)methyl)-1-(((S)-tetrahydrofuran-2-yl)methyl)-1H-benzo[d]imidazole-6-carboxylic acid] | > 100 | 0.015 | 0.017 |
| C[C@@]1(c2ccc(Cl)cc2F)Oc2cccc(N3CCN(Cc4nc5c(F)cc(C(=O)O)cc5n4Cc4cccnc4)[C@@H]4COC[C@@H]43)c2O1 (relative stereo) [Example 13c, rel-2-(((4aR,7aS)-4-((R)-2-(4-Chloro-2-fluorophenyl)-2-methylbenzo[d][1,3]dioxol-4-yl)hexahydrofuro[3,4-b]pyrazin-1(2H)-yl)methyl)-4-fluoro-1-(pyridin-3-ylmethyl)-1H-benzo[d]imidazole-6-carboxylic acid] |  | 0.73 | 0.34 |
| C[C@]1(c2ccc(Cl)cc2F)Oc2cccc(N3CCN(Cc4nc5c(F)cc(C(=O)O)cc5n4C[C@@H]4CCO4)[C@H]4COC[C@H]43)c2O1 (single isomer, unassigned) [Example 16d, 2-(((4aR*,7aS*)-4-((R*)-2-(4-Chloro-2-fluorophenyl)-2-methylbenzo[d][1,3]dioxol-4-yl)hexahydrofuro[3,4-b]pyrazin-1(2H)-yl)methyl)-4-fluoro-1-(((S)-oxetan-2-yl)methyl)-1H-benzo[d]imidazole-6-carboxylic acid] |  | 0.16 | 0.27 |
| C[C@]1(c2ccc(Cl)cn2)Oc2cccc(N3CCN(Cc4nc5ccc(C(=O)O)cc5n4CC4(C#N)CC4)[C@H]4COC[C@H]43)c2O1 (single isomer, unassigned) [Example 26] |  | 0.0036 | 0.011 |
| C[C@]1(c2ccc(Cl)cn2)Oc2cccc(N3CCN(Cc4nc5c(Cl)cc(C(=O)O)cc5n4C[C@@H]4CCCO4)[C@H]4COC[C@H]43)c2O1 (single isomer, unassigned) [Example 4b, 4-Chloro-2-(((4aR*,7aS*)-4-((R*)-2-(5-chloropyridin-2-yl)-2-methylbenzo[d][1,3]dioxol-4-yl)hexahydrofuro[3,4-b]pyrazin-1(2H)-yl)methyl)-1-(((S)-tetrahydrofuran-2-yl)methyl)-1H-benzo[d]imidazole-6-carboxylic acid] |  | 0.08 | 0.13 |
| C[C@]1(c2ccc(Cl)cc2F)Oc2cccc(N3CCN(Cc4nc5c(F)cc(C(=O)O)cc5n4C[C@@H]4CCO4)[C@H]4COC[C@H]43)c2O1 (single isomer, unassigned) [Example 16c, 2-(((4aR*,7aS*)-4-((R*)-2-(4-Chloro-2-fluorophenyl)-2-methylbenzo[d][1,3]dioxol-4-yl)hexahydrofuro[3,4-b]pyrazin-1(2H)-yl)methyl)-4-fluoro-1-(((S)-oxetan-2-yl)methyl)-1H-benzo[d]imidazole-6-carboxylic acid] |  | 0.17 | 0.44 |
| C[C@]1(c2ccc(Cl)cc2F)Oc2cccc(N3CCN(Cc4nc5c(Cl)cc(C(=O)O)cc5n4Cc4cocn4)[C@H]4COC[C@H]43)c2O1 (single isomer, unassigned) [Example 19] |  | 0.025 | 0.0074 |
| COc1cc(C(=O)O)cc2c1nc(CN1CCN(c3cccc4c3OC(C)(c3ccc(Cl)cc3F)O4)[C@@H]3COC[C@@H]31)n2C[C@@H]1CCCO1 (relative stereo) [Example 28, 2-(((4aS,7aR)-4-((R*)-2-(4-Chloro-2-fluorophenyl)-2-methylbenzo[d][1,3]dioxol-4-yl)hexahydrofuro[3,4-b]pyrazin-1(2H)-yl)methyl)-4-methoxy-1-(((S)-tetrahydrofuran-2-yl)methyl)-1H-benzo[d]imidazole-6-carboxylic acid] |  | 0.002 | 0.0012 |
| COc1cc(C(=O)O)cc2c1nc(CN1CCN(c3cccc4c3O[C@@](C)(c3ccc(Cl)cn3)O4)[C@@H]3COC[C@@H]31)n2C[C@@H]1CCCO1 (single isomer, unassigned) [Example 2b, 2-(((4aR*,7aS*)-4-((R*)-2-(5-Chloropyridin-2-yl)-2-methylbenzo[d][1,3]dioxol-4-yl)hexahydrofuro[3,4-b]pyrazin-1(2H)-yl)methyl)-4-methoxy-1-(((S)-tetrahydrofuran-2-yl)methyl)-1H-benzo[d]imidazole-6-carboxylic acid] |  | 0.11 | 0.086 |
| C[C@]1(c2ccc(Cl)cc2F)Oc2cccc(N3CCN(Cc4nc5ccc(C(=O)O)cc5n4C[C@@H]4CCO4)[C@H]4COC[C@H]43)c2O1 (single isomer, unassigned) [Example 6d, 2-(((4aR*,7aS*)-4-((R*)-2-(4-Chloro-2-fluorophenyl)-2-methylbenzo[d][1,3]dioxol-4-yl)hexahydrofuro[3,4-b]pyrazin-1(2H)-yl)methyl)-1-(((S)-oxetan-2-yl)methyl)-1H-benzo[d]imidazole-6-carboxylic acid] |  | 0.52 | 1.1 |
| Cc1nccn1CCn1c(CN2CCN(c3cccc4c3O[C@@](C)(c3ccc(Cl)cc3F)O4)[C@@H]3COC[C@@H]32)nc2c(Cl)cc(C(=O)O)cc21 (single isomer, unassigned) [Example 18] |  | 0.026 | 0.0061 |
| N#Cc1ccc(COc2cccc(C3CCN(Cc4nc5ccc(C(=O)O)cc5n4C[C@@H]4CCO4)CC3)n2)c(F)c1 [Ref Comp B, reference compound] | 11 |  |  |
| C[C@]1(c2ccc(Cl)cn2)Oc2cccc(N3CCN(Cc4nc5c(Cl)cc(C(=O)O)cc5n4C[C@@H]4CCO4)[C@H]4COC[C@H]43)c2O1 (single isomer, unassigned) [Example 14b, 4-Chloro-2-(((4aR*,7aS*)-4-((R*)-2-(5-chloropyridin-2-yl)-2-methylbenzo[d][1,3]dioxol-4-yl)hexahydrofuro[3,4-b]pyrazin-1(2H)-yl)methyl)-1-(((S)-oxetan-2-yl)methyl)-1H-benzo[d]imidazole-6-carboxylic acid] |  | 0.17 | 0.6 |
| C[C@]1(c2ccc(Cl)cc2F)Oc2cccc(N3CCN(Cc4nc5c(F)cc(C(=O)O)cc5n4Cc4cccnc4)[C@H]4COC[C@H]43)c2O1 (single isomer, unassigned) [Example 13a] |  | 0.055 | 0.013 |
